Like-named read-outs stand apart in the source and are kept apart here.
Tests used:
[1] = system: Hh signaling (Gli1 mRNA) in ASZ cells; test: Down-regulation of endogenous Gli1 mRNA in ASZ cells; assay type: cell-based, murine; conditions: Mus musculus
Summary of the method: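 Hh pathway activated in C3H10T1/2 cells with exogenous agonist (recombinant Hh ligand or small molecule) alongside inhibitor; Gli1 mRNA measured by qPCR. Concentration-dependent Gli1 reduction also assessed in murine BCC ASZ cells; values mean±SEM, ≥2 experiments in triplicate.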

[2] = system: tube formation in HUVECs; test: HUVEC tube formation on Matrigel; assay type: cell-based, human
Source text: In vivo angiogenesis is dependent on endothelial cell proliferation; therefore, the inhibition of HUVEC proliferation is commonly utilized as an early stage in vitro model of anti-angiogenic activity. […] Under normal conditions, HUVECs plated and grown on Matrigel migrate towards each other, align, and form tubes that resemble in vivo capillary beds. This assay is generally considered a more robust model of angiogenesis as it requires several aspects of proper vessel formation, including adhesion, migration, and tube formation.
Tube Formation Assay. Matrigel (BD Biosciences) is diluted with DMEM to 3 mg/ml and used to coat the wells of a 24-well tissue culture dish. Plates are incubated at room temperature for 30 min until the matrigel solidifies. HUVECs are suspended in M199 media with 1% FBS and penicillin/streptomycin and 40,000 cells are added to each well. Plates are incubated at 37° C. for 1 h to allow HUVECs to attach to the matrigel. […] Phase contrast images of each well (3/well) are taken on an inverted microscope and quantified using Image J software (NIH).
Tube Formation Assay. Matrigel (BD Biosciences) was diluted 1:1 with DMEM (matrigel protein concentration no less than 3 mg/ml) and used to coat the wells of a 24-well tissue culture dish (280 uL per well). Plates were incubated at 37° C. for no more than 1 h until the matrigel solidified. HUVECs were suspended in M199 media with 1% FBS and penicillin/streptomycin and 50,000 cells were added to each well. Plates were incubated at 37° C. for 20-30 min to allow HUVECs to attach to the matrigel. Cells were treated with control (DMSO), known angiogenic inhibitor suramin (10 uM), or varying doses (10, 1, 0.1 μM) of drug and incubated for 16 h. Phase contrast images were taken from multiple locations in each well (8/well) on an inverted microscope and tube formation parameters quantified using Image J software (NIH).

[3] = system: Gli1 in DAOYs (cultured MB); test: Down-regulation of Gli1 in DAOY cells; assay type: cell-based; conditions: Homo sapiens
Source text: Additional analogues have been synthesized and characterized in the assays described above.

[4] = system: Hh signaling (Gli1 mRNA) in MERP MB cells; test: Down-regulation of Gli1 mRNA in MERP MB cells; assay type: cell-based, mice; conditions: Mus musculus; 48 hr incubation
Procedure: General Information. Protocols for general cell culture, qPCR and Hh inhibition in C3H10T1/2 and ASZ cells are as previously described.^28 Protocols for the initiation and growth of Math1-Cre-ER; Ptc^fl/fl medulloblastoma tumors, isolation and in vitro culture of MERP MB cells, as wells as the anti-proliferation and qPCR studies performed in these cells were as previously described.^a Sonic Hedgehog (C25II) recombinant mouse protein was purchased from Life Technologies. aData was analyzed using GraphPad Prism 5 and reported values represent mean±SEM for at least two separate experiments performed in triplicate.

[5] = system: hedgehog (Hh) signaling pathway; conditions: background; cited from earlier work
[6] = system: angiogenesis; conditions: background; cited from earlier work

Which IC50 ([1]; 48 h, read-out: IC50 (μM) ASZ, 48 hr incubation) does the source give for CCC(C)n1ncn(-c2ccc(N3CCN(c4ccc(OCC5COC(Cn6cncn6)(c6ccc(Cl)cc6Cl)O5)cc4)CC3)cc2)c1=O (stereo not shown) [ITZ, itraconazole, reference compound] here?
Its IC50 is 0.14 ± 0.02 µM.

What about the IC50 ([1]; read-out: Hh pathway inhibition ASZ, down-regulation of endogenous Gli1 mRNA) of the same compound?
Its IC50 is 0.14 ± 0.02 µM.

What about the IC50 ([1]; read-out: IC50 (μM) Gli1-ASZs) of the same compound?
The IC50 was 0.14 ± 0.02 µM.

And the “inhibition of tube formation” value ([2]; 1 μM, 16 h)?
Its value is “significant inhibition”.

What about the “inhibition of tube formation (overall tube length and total tube junctions)” value ([2]; 10 μM, 16 h) of the same compound?
The value was “comparable to that of the positive control suramin”.

What about the “inhibition of tube formation” value ([2]; 0.1 and 1 μM, 24 hour) of the same compound?
The value was “significantly inhibited tube formation”.

And the IC50 [3]?
The IC50 was 0.6 ± 0.08 µM.

And the IC50 [4]?
The IC50 was 0.39 ± 0.06 µM.

What about the IC50 [5] of the same compound?
The IC50 was 690 nM.

What about the IC50 [6] of the same compound?
Its IC50 is 160 nM.

Source: US9650365B2 (UNIVERSITY OF CONNECTICUT, priority 2014, dated 2017)
